These are literature values, as cited in patent publication US9809589B2, “Crystal form of compound used as mineralocorticoid receptor antagonist and preparation method therefor” (KBP BIOSCIENCES CO., LTD., priority 2012, dated 2017).

The structures appear in SMILES notation.

The target of one series is T1, androgen receptor (Homo sapiens, UniProt P10275).
T1 sequence (P10275 1-920): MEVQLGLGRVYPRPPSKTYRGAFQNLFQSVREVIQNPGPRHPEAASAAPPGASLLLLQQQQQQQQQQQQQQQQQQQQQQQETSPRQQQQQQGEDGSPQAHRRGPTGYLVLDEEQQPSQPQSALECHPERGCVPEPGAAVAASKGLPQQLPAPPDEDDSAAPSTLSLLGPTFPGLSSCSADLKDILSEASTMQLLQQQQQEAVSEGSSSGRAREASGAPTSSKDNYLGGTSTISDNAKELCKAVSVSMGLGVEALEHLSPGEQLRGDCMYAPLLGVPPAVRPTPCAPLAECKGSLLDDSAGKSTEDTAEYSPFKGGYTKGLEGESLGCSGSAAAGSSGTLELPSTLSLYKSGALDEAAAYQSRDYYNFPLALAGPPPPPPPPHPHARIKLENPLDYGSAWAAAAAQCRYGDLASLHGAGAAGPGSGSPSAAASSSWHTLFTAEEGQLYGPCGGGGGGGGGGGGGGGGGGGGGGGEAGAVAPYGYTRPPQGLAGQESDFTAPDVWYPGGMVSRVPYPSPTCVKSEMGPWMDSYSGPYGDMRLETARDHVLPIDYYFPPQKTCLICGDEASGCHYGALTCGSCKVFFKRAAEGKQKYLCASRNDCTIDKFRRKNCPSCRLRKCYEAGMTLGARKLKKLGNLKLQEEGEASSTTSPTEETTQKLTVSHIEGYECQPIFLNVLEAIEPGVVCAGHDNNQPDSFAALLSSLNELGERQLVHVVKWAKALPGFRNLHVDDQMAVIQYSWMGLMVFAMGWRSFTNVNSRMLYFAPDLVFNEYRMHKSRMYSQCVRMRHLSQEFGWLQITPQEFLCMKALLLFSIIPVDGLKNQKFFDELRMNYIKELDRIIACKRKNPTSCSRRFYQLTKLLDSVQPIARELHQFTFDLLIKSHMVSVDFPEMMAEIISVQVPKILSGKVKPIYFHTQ
The following applies: relative to mineralocorticoid receptor; WO2012022121; cited from earlier work.

For the next series, the target named is T2, glucocorticoid receptor (Homo sapiens, UniProt P04150).
T2 sequence (P04150 1-777): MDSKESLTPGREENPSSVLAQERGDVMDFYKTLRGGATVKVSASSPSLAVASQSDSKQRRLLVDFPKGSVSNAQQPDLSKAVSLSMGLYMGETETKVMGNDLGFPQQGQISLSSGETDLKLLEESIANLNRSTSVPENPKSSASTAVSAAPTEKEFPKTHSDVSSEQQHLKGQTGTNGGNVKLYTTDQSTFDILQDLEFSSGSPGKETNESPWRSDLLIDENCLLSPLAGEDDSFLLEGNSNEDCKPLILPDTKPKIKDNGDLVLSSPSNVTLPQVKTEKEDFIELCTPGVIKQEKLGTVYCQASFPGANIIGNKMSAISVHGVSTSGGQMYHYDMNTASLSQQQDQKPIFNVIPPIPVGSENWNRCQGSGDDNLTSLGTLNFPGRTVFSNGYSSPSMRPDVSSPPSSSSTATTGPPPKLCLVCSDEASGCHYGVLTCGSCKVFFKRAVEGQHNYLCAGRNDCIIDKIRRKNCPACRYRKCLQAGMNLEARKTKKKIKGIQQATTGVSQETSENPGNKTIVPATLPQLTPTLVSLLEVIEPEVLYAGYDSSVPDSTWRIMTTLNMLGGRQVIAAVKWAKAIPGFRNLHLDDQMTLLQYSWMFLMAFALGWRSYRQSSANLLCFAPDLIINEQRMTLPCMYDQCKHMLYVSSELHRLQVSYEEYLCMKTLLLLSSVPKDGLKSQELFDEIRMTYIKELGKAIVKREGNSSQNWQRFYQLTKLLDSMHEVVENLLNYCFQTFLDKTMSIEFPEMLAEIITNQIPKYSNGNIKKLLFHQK
The following applies: relative to mineralocorticoid receptor; WO2012022121; cited from earlier work.

The target of series [1] is T3, mineralocorticoid receptor (Homo sapiens, UniProt P08235).
T3 sequence (P08235 1-984): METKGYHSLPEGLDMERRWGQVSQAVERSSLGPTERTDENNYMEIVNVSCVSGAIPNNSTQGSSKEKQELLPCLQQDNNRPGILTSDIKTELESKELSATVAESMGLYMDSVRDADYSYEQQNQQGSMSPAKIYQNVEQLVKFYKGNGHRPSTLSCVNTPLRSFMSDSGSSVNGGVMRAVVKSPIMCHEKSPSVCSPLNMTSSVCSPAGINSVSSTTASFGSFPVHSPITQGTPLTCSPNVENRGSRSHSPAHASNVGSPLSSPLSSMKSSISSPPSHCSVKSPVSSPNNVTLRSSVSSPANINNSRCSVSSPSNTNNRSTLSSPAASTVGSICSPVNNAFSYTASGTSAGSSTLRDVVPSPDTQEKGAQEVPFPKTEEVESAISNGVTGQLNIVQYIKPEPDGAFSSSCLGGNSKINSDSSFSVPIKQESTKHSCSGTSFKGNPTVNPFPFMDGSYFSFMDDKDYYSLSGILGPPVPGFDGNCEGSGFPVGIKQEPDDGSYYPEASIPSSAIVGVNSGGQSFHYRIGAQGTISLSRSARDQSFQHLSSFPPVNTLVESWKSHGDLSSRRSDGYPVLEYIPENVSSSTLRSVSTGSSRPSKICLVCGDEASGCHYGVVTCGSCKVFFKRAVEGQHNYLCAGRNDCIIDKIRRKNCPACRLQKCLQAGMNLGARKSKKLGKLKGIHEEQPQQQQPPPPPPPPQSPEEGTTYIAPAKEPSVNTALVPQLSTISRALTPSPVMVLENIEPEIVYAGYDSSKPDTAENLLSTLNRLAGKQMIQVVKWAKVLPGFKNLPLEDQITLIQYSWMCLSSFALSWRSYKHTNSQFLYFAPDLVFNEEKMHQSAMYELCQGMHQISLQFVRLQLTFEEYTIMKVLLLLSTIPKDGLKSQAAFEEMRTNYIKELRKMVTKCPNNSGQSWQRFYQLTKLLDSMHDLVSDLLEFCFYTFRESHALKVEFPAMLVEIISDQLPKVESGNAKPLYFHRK
As to conditions: as disclosed in WO2012022121; cited from earlier work.

Regarding `N#Cc1ccc(N2N=C3c4ccc(C(=O)N5CCC(O)CC5)nc4CC[C@@H]3[C@@H]2C2CCCC2)cc1Cl` [compound represented by Formula (1), 2-chloro-4-[(3S,3aR)-3-cyclopentyl-7-(4-hydroxypiperidin-1-carbonyl)-3,3a,4,5-tetrahydro-2H-pyrazolo[3,4-f]quinolin-2-yl]benzonitrile], on androgen receptor, the “Affinity to the androgen receptor” value is reported as “lower affinity”. Besides, the “Affinity to the glucocorticoid receptor” value at glucocorticoid receptor is “lower affinity”. The “Binding to the mineralocorticoid receptor” value in series [1] was “selectively bind to the mineralocorticoid receptor”.
